Experimental findings from patent EP4610269A1, “UROKINASE PLASMINOGEN ACTIVATOR SURFACE RECEPTOR (UPAR) LIGANDS FOR DIAGNOSTIC OR THERAPEUTIC USE” (3B Pharmaceuticals GmbH, priority 2024, dated 2025) are described below.

Test [1] addresses T1, uPAR-expressing HEC-265 human endometrial adenocarcinoma cells (Homo sapiens, UniProt Q03405).
T1 construct: Cell surface uPAR-expressing HEC-265 human endometrial adenocarcinoma cells; host or cells: HEC-265
Description: Competitive FACS binding assay. Conditions: pIC50 category of FACS binding. The gist of the method: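 HEC-265 cells incubated 1 h at 4 °C with 10 nM biotinylated uPAR peptide tracer plus increasing test compound, then stained with APC-streptavidin on ice. Median APC fluorescence by flow cytometry; 4PL fit gives pIC50.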
A general note: A flow cytometer gives signals particle by particle.

For test [2], the target named is T2, human uPAR (uPAR-Fc) (Homo sapiens, UniProt Q03405).
T2 construct: comprising amino acids Leu23-Arg303 according to UniProt entry Q03405.1; purchased R&D Systems 10378-UK-100
Description: Surface plasmon resonance (SPR) assay, single cycle kinetics. In kind it is binding. Conditions: pKD category for uPAR SPR activity assay; uPAR-Fc on Protein A-Chip, single cycle kinetics, 25°C; read-out: pKD CAT (converted). The procedure, abridged:
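uPAR-Fc (Leu23-Arg303 extracellular domains, human IgG1 Fc) captured on Protein A chip to ~2000 RU; single-cycle kinetics at 25°C in HEPES running buffer pH 7.4 with 0.1% DMSO. KD from double-referenced sensorgrams fitted to 1:1 Langmuir model, reported as pKD.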

Where a SMILES comes first, the peptide text is derived from it. Bridges are numbered along the chain shown (N, C = ends). Side-chain parts run from the residue outwards. [ ]: non-standard residue; d: D form. The star is where a group is joined. DOTA = O=C(O)CN1CCN(CC(=O)O)CCN(CC(=O)*)CCN(CC(=O)O)CC1; Pro(cis-4-F) = O=C(O)[C@@H]1C[C@H](F)CN1; Dopa = N[C@@H](Cc1ccc(O)c(O)c1)C(=O)O; Hyp = O=C(O)[C@@H]1C[C@@H](O)CN1; hPhe = N[C@@H](CCc1ccccc1)C(=O)O; Pentanoyl(4-Me) = CC(C)CCC(=O)*; Cha = N[C@@H](CC1CCCCC1)C(=O)O; Cit = NC(=O)NCCC[C@H](N)C(=O)O; Butoxycarbonyl = CCCCOC(=O)*; NMeV = CN[C@H](C(=O)O)C(C)C; Pip = O=C(O)[C@@H]1CCCCN1; Dab = NCC[C@H](N)C(=O)O; Nva = CCC[C@H](N)C(=O)O; Dap = NC[C@H](N)C(=O)O; Hexanoyl = CCCCCC(=O)*; Pentanoyl = CCCCC(=O)*; Aib = CC(C)(N)C(=O)O; NEtG = CCNCC(=O)O

T2 sequence (Q03405 23-303): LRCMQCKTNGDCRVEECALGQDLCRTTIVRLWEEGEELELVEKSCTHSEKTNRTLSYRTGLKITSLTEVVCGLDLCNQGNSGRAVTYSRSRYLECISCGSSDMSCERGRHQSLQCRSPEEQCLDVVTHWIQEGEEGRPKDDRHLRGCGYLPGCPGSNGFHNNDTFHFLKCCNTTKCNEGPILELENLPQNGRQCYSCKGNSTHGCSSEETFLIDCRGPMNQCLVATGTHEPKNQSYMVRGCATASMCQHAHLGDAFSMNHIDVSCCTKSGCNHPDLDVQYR
T1 sequence (Q03405 23-335): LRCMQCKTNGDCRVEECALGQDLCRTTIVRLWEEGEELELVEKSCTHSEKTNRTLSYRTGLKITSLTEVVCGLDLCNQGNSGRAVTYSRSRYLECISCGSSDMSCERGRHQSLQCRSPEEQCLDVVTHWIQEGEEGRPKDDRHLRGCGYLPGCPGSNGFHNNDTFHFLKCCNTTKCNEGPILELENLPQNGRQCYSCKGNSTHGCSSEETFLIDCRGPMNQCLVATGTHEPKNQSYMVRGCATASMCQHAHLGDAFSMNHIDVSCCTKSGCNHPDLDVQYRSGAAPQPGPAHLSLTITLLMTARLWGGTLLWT

What is called IC50 is the concentration that inhibits the measured activity by half. `CCCCOC(=O)N[C@H]1CSSC[C@@H](C(N)=O)NC(=O)[C@H](CCC)NC(=O)[C@H]([C@@H](C)CC)NC(=O)[C@@H]2C[C@@H](O)CN2C(=O)[C@@H]2C[C@H](F)CN2C(=O)[C@H](Cc2ccccc2)NC(=O)[C@H](Cc2ccc(O)cc2)NC(=O)[C@H](CNC(=O)CN2CCN(CC(=O)O)CCN(CC(=O)O)CCN(CC(=O)O)CC2)NC(=O)[C@H]([C@@H](C)O)NC1=O` [UPAR-455, Butoc-[Cys-Thr-Dap(DOTA)-Tyr-Phe-4Cfp-Hyp-Ile-Nva-Cys]-NH2] (Butoxycarbonyl-CT[Dap](DOTA)YF[Pro(cis-4-F)][Hyp]I[Nva]C-NH2; disulfide 1-10) gave an IC50 in test [1] of at most 0.01 µM. Moreover, the Kd in test [2] was under 0.00158 µM.
For `CCCCOC(=O)N[C@H]1CSSC[C@@H](C(N)=O)NC(=O)[C@H](CCC)NC(=O)[C@H]([C@@H](C)CC)NC(=O)[C@@H]2C[C@@H](O)CN2C(=O)[C@@H]2C[C@H](F)CN2C(=O)[C@H](Cc2ccccc2)NC(=O)[C@H](Cc2ccc(O)c(O)c2)NC(=O)[C@H](CCNC(=O)CN2CCN(CC(=O)O)CCN(CC(=O)O)CCN(CC(=O)O)CC2)NC(=O)[C@H]([C@@H](C)O)NC1=O` [UPAR-456, Butoc-[Cys-Thr-Dab(DOTA)-Dopa-Phe-4Cfp-Hyp-Ile-Nva-Cys]-NH2] (Butoxycarbonyl-CT[Dab](DOTA)[Dopa]F[Pro(cis-4-F)][Hyp]I[Nva]C-NH2; disulfide 1-10), in that order: at most 0.01 µM and under 0.00158 µM.
On the same counts, the results for `CC[C@H](C)[C@@H]1NC(=O)[C@@H]2C[C@@H](O)CN2C(=O)[C@@H]2CCCN2C(=O)[C@H](Cc2ccccc2)NC(=O)[C@H](Cc2ccc(O)cc2)NC(=O)[C@H](CC(=O)O)NC(=O)[C@H](CCCNC(=N)N)NC(=O)[C@@H](NC(=O)CCC(C)C)CSSC[C@@H](C(N)=O)NC(=O)[C@H](CC(C)C)NC1=O` [UPAR-458, iHex-[Cys-Arg-Asp-Tyr-Phe-Pro-Hyp-Ile-Leu-Cys]-NHz] ({Pentanoyl(4-Me)}-CRDYFP[Hyp]ILC-NH2; disulfide 1-10) are at most 0.01 µM and under 0.00158 µM.
On the same counts, the results for `CCCCOC(=O)N[C@H]1CSSC[C@@H](C(N)=O)NC(=O)[C@H](CCC)NC(=O)[C@H]([C@@H](C)CC)NC(=O)[C@@H]2C[C@@H](O)CN2C(=O)[C@@H]2C[C@H](F)CN2C(=O)[C@H](Cc2ccccc2)NC(=O)[C@H](Cc2ccc(O)c(O)c2)NC(=O)[C@H](CCCCNC(=O)[C@@H](CC(=O)O)NC(=O)CN2CCN(CC(=O)O)CCN(CC(=O)O)CCN(CC(=O)O)CC2)NC(=O)[C@H]([C@@H](C)O)NC1=O` [UPAR-459, Butoc-[Cys-Thr-Lys(DOTA-asp)-Dopa-Phe-4Cfp-Hyp-Ile-Nva-Cys]-NH2] (Butoxycarbonyl-CTK([dD-DOTA])[Dopa]F[Pro(cis-4-F)][Hyp]I[Nva]C-NH2; disulfide 1-10) are at most 0.01 µM and under 0.00158 µM.
In turn, `CCCCC(=O)N[C@H]1CSSC[C@@H](C(N)=O)NC(=O)[C@H](CCC)NC(=O)[C@H](CCc2ccccc2)NC(=O)[C@@H]2C[C@@H](O)CN2C(=O)[C@@H]2CCCN2C(=O)[C@H](Cc2ccccc2)NC(=O)[C@H](Cc2ccc(O)cc2)NC(=O)[C@H](CCC(N)=O)NC(=O)[C@H](CCCNC(=N)N)NC1=O` [UPAR-461, Pent-[Cys-Arg-Gln-Tyr-Phe-Pro-Hyp-Hfe-Nva-Cys]-NH2] (Pentanoyl-CRQYFP[Hyp][hPhe][Nva]C-NH2; disulfide 1-10) had an IC50 in test [1] of at most 0.01 µM. Further, in test [2], the Kd was under 0.00158 µM.
Compound `CCNCC(=O)N[C@H]1CSSC[C@@H](C(N)=O)NC(=O)[C@H](CC(C)C)NC(=O)[C@H]([C@@H](C)CC)NC(=O)[C@@H](C)NC(=O)[C@@H]2CCCN2C(=O)[C@H](Cc2ccccc2)NC(=O)[C@H](Cc2ccc(O)cc2)NC(=O)[C@H](CCC(N)=O)NC(=O)[C@H](CCCNC(N)=O)NC1=O` [UPAR-462, H-NEtg-[Cys-Cit-Gln-Tyr-Phe-Pro-ala-Ile-Leu-Cys]-NH2] (H-[NEtG]C[Cit]QYFP[dA]ILC-NH2; disulfide 2-11) gave an IC50 in test [1] of 0.0398 to 0.1 µM. For the same compound, the Kd in test [2] was 0.01 to 0.1 µM.
Compound `CCCCC(=O)N[C@H]1CSSC[C@@H](C(N)=O)NC(=O)[C@H](CCC)NC(=O)[C@H]([C@@H](C)CC)NC(=O)[C@@H](Cc2ccc(O)cc2)NC(=O)[C@@H]2CCCN2C(=O)[C@H](Cc2ccccc2)NC(=O)[C@H](Cc2ccc(O)cc2)NC(=O)[C@H](CCC(N)=O)NC(=O)[C@H](CCCNC(=N)N)NC1=O` [UPAR-465, Pent-[Cys-Arg-Gln-Tyr-Phe-Pro-tyr-Ile-Nva-Cys]-NH2] (Pentanoyl-CRQYFP[dY]I[Nva]C-NH2; disulfide 1-10) showed an IC50 in test [1] of at most 0.01 µM. In test [2], the Kd is under 0.00158 µM.
Turning to `CC[C@H](C)[C@@H]1NC(=O)[C@@H](C)NC(=O)[C@@H]2CCCN2C(=O)[C@H](Cc2ccccc2)NC(=O)[C@H](Cc2ccc(O)cc2)NC(=O)[C@H](CCC(N)=O)NC(=O)[C@@H](CCCNC(=N)N)NC(=O)[C@@H](NC(=O)CCC(C)C)CSSC[C@@H](C(N)=O)NC(=O)[C@H](CC(C)C)NC1=O` [UPAR-467, iHex-[Cys-arg-Gln-Tyr-Phe-Pro-ala-Ile-Leu-Cys]-NH2] ({Pentanoyl(4-Me)}-C[dR]QYFP[dA]ILC-NH2; disulfide 1-10), in test [1], the IC50 is at least 0.126 µM. Further, in test [2], the Kd is 0.01 to 0.1 µM.
For `CC[C@H](C)[C@@H]1NC(=O)[C@@H](C)NC(=O)[C@@H]2CCCN2C(=O)[C@H](Cc2ccccc2)NC(=O)[C@H](Cc2ccc(O)cc2)NC(=O)[C@H](CCC(N)=O)NC(=O)C(C)(C)NC(=O)[C@@H](NC(=O)CCC(C)C)CSSC[C@@H](C(N)=O)NC(=O)[C@H](CC(C)C)NC1=O` [UPAR-468, iHex-[Cys-Aib-Gln-Tyr-Phe-Pro-ala-Ile-Leu-Cys]-NH2] ({Pentanoyl(4-Me)}-C[Aib]QYFP[dA]ILC-NH2; disulfide 1-10), in that order: at most 0.01 µM and 0.00158 to 0.01 µM.
For `CC[C@H](C)[C@@H]1NC(=O)[C@@H]2CCCCN2C(=O)[C@@H]2CCCN2C(=O)[C@H](Cc2ccccc2)NC(=O)[C@H](Cc2ccc(O)cc2)NC(=O)[C@H](CCC(N)=O)NC(=O)[C@H](CCCNC(N)=O)NC(=O)[C@@H](NC(=O)CCC(C)C)CSSC[C@@H](C(N)=O)NC(=O)[C@H](CC(C)C)NC1=O` [UPAR-469, iHex-[Cys-Cit-Gln-Tyr-Phe-Pro-Pip-Ile-Leu-Cys]-NH2] ({Pentanoyl(4-Me)}-C[Cit]QYFP[Pip]ILC-NH2; disulfide 1-10), the concentration for half-maximal inhibition (IC50) in test [1] was 0.0126 to 0.0316 µM. Also, the Kd in test [2] was 0.00158 to 0.01 µM.
`CCCCC(=O)N[C@H]1CSSC[C@@H](C(N)=O)NC(=O)[C@H](CCC)NC(=O)[C@H]([C@@H](C)CC)NC(=O)[C@@H]2C[C@@H](O)CN2C(=O)[C@H](C(C)C)N(C)C(=O)[C@H](Cc2ccccc2)NC(=O)[C@H](Cc2ccc(O)cc2)NC(=O)[C@H](CCC(N)=O)NC(=O)[C@H](CCCNC(=N)N)NC1=O` [UPAR-470, Pent-[Cys-Arg-Gln-Tyr-Phe-Nmv-Hyp-Ile-Nva-Cys]-NH2] (Pentanoyl-CRQYF[NMeV][Hyp]I[Nva]C-NH2; disulfide 1-10) gave an IC50 in test [1] of at least 0.126 µM. Moreover, the Kd in test [2] was over 0.1 µM.
Consider `CCCCC(=O)N[C@H]1CSSC[C@@H](C(N)=O)NC(=O)[C@H](CCC)NC(=O)[C@H]([C@@H](C)CC)NC(=O)[C@@H]2C[C@@H](O)CN2C(=O)[C@@H]2CCCN2C(=O)[C@H](Cc2ccccc2)NC(=O)[C@H](Cc2ccc(O)cc2)NC(=O)[C@H](CCCCNC(=O)CN2CCN(CC(=O)O)CCN(CC(=O)O)CCN(CC(=O)O)CC2)NC(=O)[C@H](CCC(=O)O)NC1=O` [UPAR-471, Pent-[Cys-Glu-Lys(DOTA)-Tyr-Phe-Pro-Hyp-Ile-Nva-Cys]-NH2] (Pentanoyl-CEK(DOTA)YFP[Hyp]I[Nva]C-NH2; disulfide 1-10), for which the 50% inhibitory concentration (IC50) in test [1] is at most 0.01 µM. Further, the Kd in test [2] is under 0.00158 µM.
On the same counts, the results for `CCCCC(=O)N[C@H]1CSSC[C@@H](C(N)=O)NC(=O)[C@H](CCC)NC(=O)[C@H]([C@@H](C)CC)NC(=O)[C@@H]2CCCN2C(=O)[C@@H]2CCCN2C(=O)[C@H](Cc2ccccc2)NC(=O)[C@H](Cc2ccc(O)cc2)NC(=O)[C@H](CCCCNC(=O)CN2CCN(CC(=O)O)CCN(CC(=O)O)CCN(CC(=O)O)CC2)NC(=O)[C@H](CCCNC(N)=O)NC1=O` [UPAR-473, Pent-[Cys-Cit-Lys(DOTA)-Tyr-Phe-Pro-Pro-Ile-Nva-Cys]-NH2] (Pentanoyl-C[Cit]K(DOTA)YFPPI[Nva]C-NH2; disulfide 1-10) are at most 0.01 µM and under 0.00158 µM.
For `CC[C@H](C)[C@@H]1NC(=O)[C@@H](C)NC(=O)[C@@H]2CCCN2C(=O)[C@H](Cc2ccccc2)NC(=O)[C@H](Cc2ccc(O)cc2)NC(=O)[C@H](CCC(N)=O)NC(=O)[C@H](CCCNC(N)=O)NC(=O)[C@@H](NC(=O)CCC(C)C)CSSC[C@@H](C(N)=O)NC(=O)[C@H](CC2CCCCC2)NC1=O` [UPAR-474, iHex-[Cys-Cit-Gln-Tyr-Phe-Pro-ala-Ile-Cha-Cys]-NH2] ({Pentanoyl(4-Me)}-C[Cit]QYFP[dA]I[Cha]C-NH2; disulfide 1-10), in that order: at least 0.126 µM and over 0.1 µM.
For `CCCCCC(=O)N[C@H]1CSSC[C@@H](C(N)=O)NC(=O)[C@H](CC(C)C)NC(=O)[C@H]([C@@H](C)CC)NC(=O)[C@@H](C)NC(=O)[C@@H]2CCCN2C(=O)[C@H](Cc2ccccc2)NC(=O)[C@H](Cc2ccc(O)cc2)NC(=O)[C@H](CCC(N)=O)NC(=O)[C@H](CCCNC(N)=O)NC1=O` [UPAR-475, Hex-[Cys-Cit-Gln-Tyr-Phe-Pro-ala-Ile-Leu-Cys]-NH2] (Hexanoyl-C[Cit]QYFP[dA]ILC-NH2; disulfide 1-10), in that order: at most 0.01 µM and under 0.00158 µM.
